Experimental data from article PMC11148772, “Inhibition of protein translational machinery in triple-negative breast cancer as a promising therapeutic strategy” (Cell Reports Medicine, 2024).
Residues, ends and D or L forms follow the SMILES beside them. *: point of attachment. Cbz = O=C(OCc1ccccc1)*

Experiments:
[1] = test system: TNBC cells (MDA-MB-231, MDA-MB-468, SUM159); assay: Immunoblot assay of cell lysates; assay type: cell-based, human; details: MG132 10 μM + SU056 1 μM, 15 h, MDA-MB-231 and MDA-MB-468
[2] = target: T1, YB-1 (Homo sapiens, UniProt P67809); assay: Pulldown assay with biotinylated SU056, MDA-MB-468; assay type: binding; design: endogenous in cells; details: 2 μM, 2 h
Procedure: (§1) Protein pulldown assay was performed using biotinylated SU056. MDA-MB-231 and MDA-MB-468 cells were treated with 2 μM biotinylated SU056 for 2 h. After 2 h of treatment, cells were collected and lysed using M-PER lysis solution (Thermo Scientific, #78503), supplemented with Halt protease and phosphatase inhibitor cocktail (Thermo Scientific, #78440). Protein lysate from Biotinylated SU056 treated cells were treated with RNase (10 μg/mL) for 15 min at 37°C. 600 μg protein was incubated with magnetic conjugate streptavidin bead (CST, #5947) at room temperature on rocker for 30 min. Biotin-streptavidin conjugates were pulled down and washed using a magnetic rack. After three washes, beads were resuspended in 2X SDS sample buffer followed by heating at 90°C–100°C for 5 min. Samples were resolved and probed with anti-YB-1 and anti-RPL11 antibodies as described in immunoblotting. Samples of protein lysates from MDA-MB-231 and MDA-MB-468 without biotinylated SU056 (input), samples from pulldown using only biotin and only streptavidin beads were used as experimental controls.

[3] = target: T1, YB-1; assay: Pulldown assay with biotinylated SU056, MDA-MB-231; assay type: binding; design: endogenous in cells; host or cells: MDA-MB-231; details: 2 μM, 2 h
Procedure: as §1

SMILES | effect on SU056-induced decrease in levels of YB-1 and RPL11 [1] | interaction with YB-1 (pull-down) [2] | increase of interaction with YB-1 in RNase-treated protein lysates ([2]; RNase 10 μg/mL) | interaction with YB-1 (pull-down) [3] | increase of interaction with YB-1 in RNase-treated protein lysates ([3]; RNase 10 μg/mL)
CC(C)C[C@@H](C=O)NC(=O)[C@H](CC(C)C)NC(=O)[C@H](CC(C)C)NC(=O)OCc1ccccc1 [MG132, reference compound] (Cbz-Leu-Leu-Leu-aldehyde) | partially reversed |  |  |  | 
O=C(CCCC[C@@H]1SC[C@@H]2NC(=O)N[C@@H]21)NCCSSCCC(=O)OCCN1C2=C(C(=O)OC2)C(c2cccc(F)c2)c2cc3c(cc21)OCO3 (stereo partly drawn) [biotinylated SU056, 2-(9-(3-fluorophenyl)-8-oxo-6,9-dihydro-[1,3]dioxolo[4,5-g]furo[3,4-b]quinolin-5(8H)-yl)ethyl 3-((2-(5-((3aS,4S,6aR)-2-oxohexahydro-1H-thieno[3,4-day]imidazol-4-yl)pentanamido)ethyl)disulfaneyl)propanoate] |  | physically interacts | 18.76 fold | physically interacts | 3.13 fold
